According to US8445409B2, “Use of 5-benzyloxymethyl-1,2-isoxazoline derivatives as a herbicide” (Moghu Research Center Ltd., priority 2007, dated 2013):

Experiments:
[1] = test system: Large crabgrass; assay: Herbicidal activity at different growth stages, fresh weight suppression; format: in vivo; settings: fresh weight two weeks after treatment
Method: (§1) To a cup pot having a surface area of 100 cm^2 wherein mixed soils including blend bed soil (Boonong, Horticultural Bed Soil No. 3) and sandy loam soil were filled (mixing ratio, 1:1), seeds of large crabgrass and annual bluegrass were sown consecutively at an one week interval. The pots were moistened by sub-irrigation, and kept in a greenhouse maintained at 25˜30° C. (day) or 15˜25° C. (night). The said weeds were grown to various growth stages from pre-emergence to the four-leaf stage. Then, they were applied with the test substance of the present invention at dosage of 2, 1, 0.5, or 0.25 kg/ha. As a reference herbicide, Dithiopyr (32% EC, manufactured by Dongbu Hannong Chemical Company), was applied at 0.96, 0.48, or 0.24 kg/ha. Spray volume was adjusted to 2,000 L/ha. The method to spray of the test substance and prepare spray solutions were the same as described above. The reference herbicide was used after it was diluted with 0.2% (v/v) Tween 20 aqueous solution. The test was conducted in a randomized block design with three replicates. Two weeks after the treatment, plant parts remained above the pot soil surface were cut and the fresh weight was weighed. Results are given by a suppression ratio relative to the biomass that was obtained from the untreated group (see, Table 3).

[2] = test system: Annual bluegrass; assay: as above; format: in vivo; settings: fresh weight two weeks after treatment
Method: as §1, with “Then, they were applied with the test substance of the present invention at dosage of 2, 1, 0.5, or 0.25 kg/ha. As a reference herbicide, Dithiopyr (32% EC, manufactured by Dongbu Hannong Chemical Company), was applied at 0.96, 0.48, or 0.24 kg/ha.” left out

[3] = test system: Bentgrass; assay: Turfgrass safety test (sod mat pots), visual phytotoxicity; format: in vivo; settings: 0-10 scale (10=completely killed)
From the text: (§2) Commercially available sod mats of zoysiagrass and bentgrass, Kentucky bluegrass, and perennial ryegrass were purchased. After cutting each turf sod mat in a size of 10 cm×20 cm, it was transplanted to a rectangular plastic pot having a surface area of 300 cm^2 wherein mixed soils including blend of a bed soil (Boonong, Horticultural Nursery Soil No. 3) and sandy loam soil were filled (mixing ratio, 1:1). After transplanting, the grass was mowed (0.5˜1.0 cm in height) once a week, and kept for one month in a greenhouse maintained at 25˜30° C. (day) or 15˜25° C. (night), then the test substance of the present invention was applied at dosage of 4, 2, 1 and 0.5 kg/ha. As a reference, Dithiopyr (32% EC, manufactured by Dongbu Hannong Chemical Company, KOREA) was applied at the recommended rate of 0.48 kg/ha, or twice or quadruple amount thereof, i.e., 0.96 and 1.92 kg/ha, respectively. Spray was made by a track sprayer equipped with a Teejet 8002 nozzle. Spray volume was adjusted to 2,000 L/ha, which was a typical value for an Asian (Korea and Japan) golf course. The spray solution was prepared by dissolving the “test substance” in acetone and adding the same volume of 0.2% (v/v) Tween 20 aqueous solution. Two, four or six weeks after the spray of the test substance, phytotoxicity to the turfgrass were visually evaluated based on 0 to 10 scale (0: no phytotoxic effect, 10: completely killed). The test was conducted in a randomized block design with a three replicates and the results were summarized in the following Table 2 is an average value of the replicates.

[4] = test system: Perennial ryegrass; assay: as above; format: in vivo; settings: 0-10 scale (10=completely killed)
From the text: as §2

[5] = test system: Kentucky bluegrass; assay: as above; format: in vivo; settings: 0-10 scale (10=completely killed)
From the text: as §2

[6] = test system: Zoysiagrass; assay: as above; format: in vivo, Zoysia japonica; settings: for Phytotoxic effect, visual assessment: Zoysiagrass Week 2 / Phytotoxic effect, visual assessment: Zoysiagrass Week 4 / Phytotoxic effect, visual assessment: Zoysiagrass Week 6: 0-10 scale (10=completely killed)
From the text: as §2

In the case of `CSC(=O)c1c(C(F)F)nc(C(F)(F)F)c(C(=O)SC)c1CC(C)C` [Dithiopyr, reference compound], the “Suppression ratio relative to the biomass of the untreated group: Large crabgrass 1 leaf” value ([1]; .24 kg/ha) is reported as 100%, the “Suppression ratio relative to the biomass of the untreated group: Large crabgrass 2 leaf” value ([1]; .24 kg/ha) is reported as 89% and the “Suppression ratio relative to the biomass of the untreated group: Large crabgrass 3 leaf” value ([1]; .24 kg/ha) is reported as 86%. The “Suppression ratio relative to the biomass of the untreated group: Large crabgrass 4 leaf” value ([1]; .24 kg/ha) was 56%, the “Suppression ratio relative to the biomass of the untreated group: Large crabgrass PRE” value ([1]; .24 kg/ha) was 100% and the “Suppression ratio relative to the biomass of the untreated group: Large crabgrass 1 leaf” value ([1]; .48 kg/ha) was 100%. The “Suppression ratio relative to the biomass of the untreated group: Large crabgrass 2 leaf” value ([1]; .48 kg/ha) was 95%, the “Suppression ratio relative to the biomass of the untreated group: Large crabgrass 3 leaf” value ([1]; .48 kg/ha) was 89% and the “Suppression ratio relative to the biomass of the untreated group: Large crabgrass 4 leaf” value ([1]; .48 kg/ha) was 57%. For the same compound, the “Suppression ratio relative to the biomass of the untreated group: Large crabgrass PRE” value ([1]; .48 kg/ha) was 100%, the “Suppression ratio relative to the biomass of the untreated group: Large crabgrass 1 leaf” value ([1]; .96 kg/ha) was 100% and the “Suppression ratio relative to the biomass of the untreated group: Large crabgrass 2 leaf” value ([1]; .96 kg/ha) was 98%. For the same compound, the “Suppression ratio relative to the biomass of the untreated group: Large crabgrass 3 leaf” value ([1]; .96 kg/ha) was 89%, the “Suppression ratio relative to the biomass of the untreated group: Large crabgrass 4 leaf” value ([1]; .96 kg/ha) was 66% and the “Suppression ratio relative to the biomass of the untreated group: Large crabgrass PRE” value ([1]; .96 kg/ha) was 100%. The “Suppression ratio relative to the biomass of the untreated group: Annual bluegrass 1 leaf” value ([2]; .24 kg/ha) was 90%, the “Suppression ratio relative to the biomass of the untreated group: Annual bluegrass 2 leaf” value ([2]; .24 kg/ha) was 87% and the “Suppression ratio relative to the biomass of the untreated group: Annual bluegrass 3 leaf” value ([2]; .24 kg/ha) was 46%. The “Suppression ratio relative to the biomass of the untreated group: Annual bluegrass 4 leaf” value ([2]; .24 kg/ha) was 4%, the “Suppression ratio relative to the biomass of the untreated group: Annual bluegrass PRE” value ([2]; .24 kg/ha) was 100% and the “Suppression ratio relative to the biomass of the untreated group: Annual bluegrass 1 leaf” value ([2]; .48 kg/ha) was 95%. For the same compound, the “Suppression ratio relative to the biomass of the untreated group: Annual bluegrass 2 leaf” value ([2]; .48 kg/ha) was 88%, the “Suppression ratio relative to the biomass of the untreated group: Annual bluegrass 3 leaf” value ([2]; .48 kg/ha) was 44% and the “Suppression ratio relative to the biomass of the untreated group: Annual bluegrass 4 leaf” value ([2]; .48 kg/ha) was 10%. For the same compound, the “Suppression ratio relative to the biomass of the untreated group: Annual bluegrass PRE” value ([2]; .48 kg/ha) was 100%, the “Suppression ratio relative to the biomass of the untreated group: Annual bluegrass 1 leaf” value ([2]; .96 kg/ha) was 97% and the “Suppression ratio relative to the biomass of the untreated group: Annual bluegrass 2 leaf” value ([2]; .96 kg/ha) was 91%. The “Suppression ratio relative to the biomass of the untreated group: Annual bluegrass 3 leaf” value ([2]; .96 kg/ha) was 61%, the “Suppression ratio relative to the biomass of the untreated group: Annual bluegrass 4 leaf” value ([2]; .96 kg/ha) was 35% and the “Suppression ratio relative to the biomass of the untreated group: Annual bluegrass PRE” value ([2]; .96 kg/ha) was 100%. The “Phytotoxic effect, visual assessment: Bentgrass Week 2” value (“Phytotoxic effect … Bentgrass Week 2” below) ([3]; 0.48 kg/ha (recommended rate)) was 1.5, the “Phytotoxic effect, visual assessment: Bentgrass Week 4” value (“Phytotoxic effect … Bentgrass Week 4” below) ([3]; 0.48 kg/ha (recommended rate)) was 0.3 and the “Phytotoxic effect, visual assessment: Bentgrass Week 6” value (“Phytotoxic effect … Bentgrass Week 6” below) ([3]; 0.48 kg/ha (recommended rate)) was 0.3. For the same compound, the “Phytotoxic effect … Bentgrass Week 2” value ([3]; 0.96 kg/ha) was 2.3, the “Phytotoxic effect … Bentgrass Week 4” value ([3]; 0.96 kg/ha) was 1.7 and the “Phytotoxic effect … Bentgrass Week 6” value ([3]; 0.96 kg/ha) was 2.0. The “Phytotoxic effect … Bentgrass Week 2” value ([3]; 1.92 kg/ha) was 3.3, the “Phytotoxic effect … Bentgrass Week 4” value ([3]; 1.92 kg/ha) was 4.2 and the “Phytotoxic effect … Bentgrass Week 6” value ([3]; 1.92 kg/ha) was 4.2. For the same compound, the “Phytotoxic effect, visual assessment: Perennial ryegrass Week 2” value ([4]; 0.48 kg/ha (recommended rate)) was 1.3, the “Phytotoxic effect, visual assessment: Perennial ryegrass Week 4” value ([4]; 0.48 kg/ha (recommended rate)) was 0.3 and the “Phytotoxic effect, visual assessment: Perennial ryegrass Week 6” value ([4]; 0.48 kg/ha (recommended rate)) was 0.3. The “Phytotoxic effect, visual assessment: Perennial ryegrass Week 2” value ([4]; 0.96 kg/ha) was 2.0, the “Phytotoxic effect, visual assessment: Perennial ryegrass Week 4” value ([4]; 0.96 kg/ha) was 2.0 and the “Phytotoxic effect, visual assessment: Perennial ryegrass Week 6” value ([4]; 0.96 kg/ha) was 1.3. For the same compound, the “Phytotoxic effect, visual assessment: Perennial ryegrass Week 2” value ([4]; 1.92 kg/ha) was 3.3, the “Phytotoxic effect, visual assessment: Perennial ryegrass Week 4” value ([4]; 1.92 kg/ha) was 2.7 and the “Phytotoxic effect, visual assessment: Perennial ryegrass Week 6” value ([4]; 1.92 kg/ha) was 2.3. The “Phytotoxic effect, visual assessment: Kentucky bluegrass Week 2” value ([5]; 0.48 kg/ha (recommended rate)) was 1.5, the “Phytotoxic effect, visual assessment: Kentucky bluegrass Week 4” value ([5]; 0.48 kg/ha (recommended rate)) was 0.5 and the “Phytotoxic effect, visual assessment: Kentucky bluegrass Week 6” value ([5]; 0.48 kg/ha (recommended rate)) was 0.7. The “Phytotoxic effect, visual assessment: Kentucky bluegrass Week 2” value ([5]; 0.96 kg/ha) was 2.2, the “Phytotoxic effect, visual assessment: Kentucky bluegrass Week 4” value ([5]; 0.96 kg/ha) was 2.7 and the “Phytotoxic effect, visual assessment: Kentucky bluegrass Week 6” value ([5]; 0.96 kg/ha) was 2.7. For the same compound, the “Phytotoxic effect, visual assessment: Kentucky bluegrass Week 2” value ([5]; 1.92 kg/ha) was 3.7, the “Phytotoxic effect, visual assessment: Kentucky bluegrass Week 4” value ([5]; 1.92 kg/ha) was 4.2 and the “Phytotoxic effect, visual assessment: Kentucky bluegrass Week 6” value ([5]; 1.92 kg/ha) was 4.2. For the same compound, the “Phytotoxic effect, visual assessment: Zoysiagrass Week 2” value (“Phytotoxic effect … Zoysiagrass Week 2” below) ([6]; 0.48 kg/ha (recommended rate)) was 1.0, the “Phytotoxic effect, visual assessment: Zoysiagrass Week 4” value (from here on “Phytotoxic effect … Zoysiagrass Week 4”) ([6]; 0.48 kg/ha (recommended rate)) was 1.0 and the “Phytotoxic effect, visual assessment: Zoysiagrass Week 6” value (shortened to “Phytotoxic effect … Zoysiagrass Week 6”) ([6]; 0.48 kg/ha (recommended rate)) was 0.7. For the same compound, the “Phytotoxic effect … Zoysiagrass Week 2” value ([6]; 0.96 kg/ha) was 2.3, the “Phytotoxic effect … Zoysiagrass Week 4” value ([6]; 0.96 kg/ha) was 1.5 and the “Phytotoxic effect … Zoysiagrass Week 6” value ([6]; 0.96 kg/ha) was 1.3. The “Phytotoxic effect … Zoysiagrass Week 2” value ([6]; 1.92 kg/ha) was 3.7, the “Phytotoxic effect … Zoysiagrass Week 4” value ([6]; 1.92 kg/ha) was 3.3 and the “Phytotoxic effect … Zoysiagrass Week 6” value ([6]; 1.92 kg/ha) was 3.0. The “Phytotoxicity against zoysiagrass (in words)” value ([6]; in vivo) was “clearly evidencing the phytotoxicity”.
